Data: PubChem BioAssay (NCI)
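All cell lines were grown in 96-well plates and treated with compound for 48 hours. At the GI50, growth is halved. TGI: total growth inhibition.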

What was measured:
Assay in all cases: NCI-60 cell line screen, 48 h
[1] = tested on: OVCAR-5 ovarian
[2] = tested on: RPMI-8226 leukemia
[3] = tested on: MDA-MB-435
[4] = tested on: HT29 colon
[5] = tested on: SW-620 colon
[6] = tested on: HOP-62 NSCLC
[7] = tested on: SF-539 CNS
[8] = tested on: SR leukemia
[9] = tested on: SF-295 CNS
[10] = tested on: NCI-H460 lung
[11] = tested on: HS 578T breast
[12] = tested on: UACC-62 melanoma
[13] = tested on: T-47D breast
[14] = tested on: COLO 205 colon
[15] = tested on: SK-MEL-28 melanoma
[16] = tested on: PC-3 prostate
[17] = tested on: OVCAR-8 ovarian
[18] = tested on: IGROV1 ovarian
[19] = tested on: RXF 393 renal
[20] = tested on: HCT-116 colon
[21] = tested on: EKVX NSCLC
[22] = tested on: KM12 colon
[23] = tested on: HL-60(TB) leukemia
[24] = tested on: A498 renal
[25] = tested on: HCC-2998 colon
[26] = tested on: U251 CNS
[27] = tested on: NCI/ADR-RES ovarian
[28] = tested on: LOX IMVI melanoma

O=C(Nc1nc2ccc([N+](=O)[O-])cc2s1)Nc1ccccc1I gave a GI50 [1] of 9.78 µM, a TGI [1] of 86.6 µM and a GI50 [2] of 2.08 µM. For the same compound, the TGI [2] was 5.74 µM, the GI50 [3] was 3.78 µM and the TGI [3] was over 100 µM. It also gave a GI50 [4] of 5.76 µM, a TGI [4] of 20 µM and a GI50 [5] of 4.35 µM. The TGI [5] was 31.7 µM, the GI50 [6] was 6.16 µM and the TGI [6] was 21.4 µM. For the same compound, the GI50 [7] was 3.45 µM, the TGI [7] was 12.9 µM and the GI50 [8] was 2.06 µM. The TGI [8] was 5.03 µM, the GI50 [9] was 3.34 µM and the TGI [9] was 14.8 µM. It also gave a GI50 [10] of 3.55 µM, a TGI [10] of 16.4 µM and a GI50 [11] of 3.23 µM. The TGI [11] was over 100 µM, the GI50 [12] was 3.31 µM and the TGI [12] was 37.1 µM. It also gave a GI50 [13] of 2.57 µM, a TGI [13] of 8.98 µM and a GI50 [14] of 4.89 µM. The TGI [14] was 20 µM, the GI50 [15] was 3.4 µM and the TGI [15] was 39 µM. It also gave a GI50 [16] of 3.43 µM, a TGI [16] of 84.2 µM and a GI50 [17] of 4.58 µM. It also gave a TGI [17] of 20.6 µM, a GI50 [18] of 3.97 µM and a TGI [18] of over 100 µM. The GI50 [19] was 4.18 µM, the TGI [19] was 24.2 µM and the GI50 [20] was 3.46 µM. For the same compound, the TGI [20] was 12.6 µM, the GI50 [21] was 3.05 µM and the TGI [21] was 12.3 µM. The GI50 [22] was 3.82 µM, the TGI [22] was over 100 µM and the GI50 [23] was 2.15 µM. It also gave a TGI [23] of 7.92 µM, a GI50 [24] of 2.57 µM and a TGI [24] of 8.12 µM. For the same compound, the GI50 [25] was 4.12 µM, the TGI [25] was 23.4 µM and the GI50 [26] was 3.3 µM. For the same compound, the TGI [26] was 12.7 µM, the GI50 [27] was 3.12 µM and the TGI [27] was 11.8 µM. The GI50 [28] was 3.67 µM.
